# Experimental data as given in patent US20210251226A1, “METHOD AND COMPOSITION FOR INHIBITING THE GROWTH OF PSEUDOMONAS SYRINGAE ON A PLANT MATERIAL, AND KIT FOR TREATING THE SAME” (City University of Hong Kong, priority 2020, published 2021).
# What was measured:
# [1] = tested on: wild-type P. syringae pv. tomato; conditions: 6 day post inoculation
# Procedure: To study the effect of concentration of NaAc on inhibiting growth of P. syringae, 2×10^4 CFU/ml of wild-type P. syringae pv. tomato bacteria were injected into the tomato leaves. Then, the inoculated leaves were sprayed with water and 0.1-100 mM NaAc. Three 1 cm^2 leaf disks at 6 day post inoculation were homogenated and diluted in water to count bacterial CFUs.
# [2] = tested on: P. syringae; assay: Toxicity to P. syringae liquid culture (CFU count); conditions: liquid culture treated 2 hours
# Procedure: To study whether the optimized NaAc recipe is toxic to P. syringae, a P. syringae liquid culture was treated with 0.1 mM FeAc, 100 mM NaAc, and the optimized recipe (1 mM NaAc and 0.1 mM FeAc) respectively for 2 hours. The treated and control (untreated) cultures were then diluted for counting bacterial CFUs.
# [3] = tested on: bean leaf; assay: Toxicity to host plant leaves after injection
# Procedure: Furthermore, to study whether the optimized NaAc recipe is toxic to a host plant, aqueous solutions of 0.1 mM FeAc, 100 mM NaAc, and the optimized recipe (1 mM NaAc and 0.1 mM FeAc) were respectively injected into tomato and bean leaves and inoculated for 6 days.
# [4] = tested on: wild-type P. syringae
# [5] = tested on: wild-type P. syringae; conditions: 10 mM NaAc, 6 days after inoculation, 2×10^4 CFU/ml
# [6] = tested on: P. syringae; conditions: conventional agent, comparison; cited from earlier work
# [7] = tested on: hrpL; assay: hrpL-lux activity (hrpL expression) in wild-type P. syringae; type: cell-based; conditions: 1 mM of each salt
# Procedure: To study the inhibitory effect of different acetate salts to inhibit P. syringae, 1 mM of 12 acetate salts was tested on the expression of hrpL, namely on hrpL-lux activities, in the wild-type P. syringae. The 12 acetate salts included acetate salts of lithium (Li), potassium (K), magnesium (Mg), sodium (Na), calcium (Ca), manganese (Mn), aluminium (Al), nickel (Ni), acetic acid (denoted as HAc), copper (Cu), ammonium (NH4), and iron (Fe).
smiles,measurement,setting,value
"CC(=O)[O-].[Na+] [NaAc, sodium acetate]",difference in bacterial CFU between water control and NaAc spray,"[1]; tomato leaf, 0.1-100 mM spray, P<0.05",significant
same,best concentration for reducing bacterial growth,"[1]; tomato, of concentrations from 0.1 mM to 100 mM",100 mM
same,toxicity to P. syringae,[2],not toxic
same,toxicity to host plant leaf,"[3]; injected into leaf, 6 days",not toxic
same,toxicity or resistance on plant,[3]; plant,no toxicity or resistance on plant
same,bacterial pathogenicity (disease symptoms) on tomato leaf,"[4]; 10 mM NaAc, 6 days after inoculation, 2×10^4 CFU/ml",significantly reduced bacterial pathogenicity
same,concentration removing infection symptom,[4]; host plant not named at this place,10 mM
same,bacterial pathogenicity (disease symptoms) on bean leaf,[5],significantly reduced bacterial pathogenicity
O=S(=O)([O-])[O-].[Cu+2] [copper sulfate],minimum inhibitory concentration (MIC),[6],3000 µM
CC(=O)[O-].CC(=O)[O-].[Fe+2] [iron acetate],"inhibitory effect on hrpL-lux activities, rank among 12 acetate salts",[7],best inhibitory effect
[H]/N=C(/N)N[C@H]1[C@H](O)[C@@H](O)[C@H](O[C@@H]2O[C@@H](C)[C@](O)(C=O)[C@H]2O[C@@H]2O[C@@H](CO)[C@H](O)[C@@H](O)[C@@H]2NC)[C@@H](N/C(N)=N\[H])[C@@H]1O [streptomycin],minimum inhibitory concentration (MIC),[6],1000 µg/mL
